Laboratory results taken from patent US8546376B2, “Pharmaceutical compounds” (Almac Discovery Limited, priority 2009, dated 2013).
Counter-ions that a name gives are not always drawn.

Assays:
Type in all cases: biochemical
[1] = biological target: T1, AKT1 (Homo sapiens, UniProt P31749); assay: AKT Kinase Assay (IMAP fluorescent polarisation) vs AKT1; details: activated AKT1, FAM Crosstide substrate
T1 construct: purchased SignalChem
Procedure: (§1) Testing of the compounds was performed using an AKT Kinase Assay:
(§2) Activated AKT isoforms 1, 2 and 3 were assayed utilising a 5′ FAM Crosstide (Seq. GRPRTSSFAEG-OH). The extent of kinase phosphorylation was determined by fluorescent polarisation using IMAP progressive binding reagent, which introduces binding beads which allow the reagent to specifically bind to phosphate residues via covalent co-ordination complex bonds.
(§3) iMAP binding solution stops Crosstide/kinase interaction and specifically binds phosphorylated substrates. The degree of phosphorylation is determined by fluorescent polarisation (excitation 485 nm; emission 528 nm) or the reduction in speed of rotation of the excited substrate.
(§4) The following materials were used in the assay: • a) Activated AKT isoforms (SignalChem.) dissolved in Complete Reaction buffer at a pre-determined concentration selected so that the assay was carried out in the linear range. • b) AKT substrate peptide: FAM Crosstide (R7110) Molecular Devices, diluted in complete reaction buffer. • c) iMAP Progressive Screening Express Kit (R8127) Molecular Devices • d) Complete Reaction Buffer containing 0.1% BSA, 10 mM Tris-HCl, 10 mM MgCl2, 0.05% NaN3 and 0.01% phosphate free BSA, 1 mM DTT • e) Progressive Binding Solution containing 75% Buffer A, 25% Buffer B and low volume Binding Reagent which contains the binding entity for the assay • f) ATP diluted in complete reaction buffer • g) Black polystyrene 384 well assay plates (Nunc). • h) Biotek Synergy 4 Hybrid Plate reader.
(§5) 5 μl of test compound was dissolved in DMSO (Sigma Aldrich) and serially diluted in complete reaction buffer to give a fourteen point half log dose response and plated into 384 well black plates. The compound was incubated at room temperature with activated AKT isoform (5 μl) at the pre-determined concentration, for 45 minutes.
(§6) 2.5 μl of ATP solution mixed with 2.5 μl of AKT substrate peptide (FAM Crosstide (R7110) Molecular Devices) were dispensed into each well and the plate centrifuged at 1000 rpm for 20 seconds to ensure homogenous mixing of reagents. The reaction mix was incubated in the dark for one hour at room temperature.
(§7) The kinase reaction was stopped by the addition of Progressive Binding Solution and the mixture allowed to equilibrate for one hour in the dark, at room temperature.
(§8) The fluorescent polarisation generated in each well was determined using a […] Synergy 4 Hybrid plate reader. In brief, each reaction solution was excited at 485 nm with the emission measured at 528 nm in both the parallel and perpendicular pathway.
(§9) The polarisation value generated in each well was calculated by Gen5 software (Biotek) and the % inhibition of kinase activity compared to vehicle control was calculated via GraphPad Prism. IC50 values for each compound were calculated by non-linear regression analysis using Prism software.
(§10) All plates were internally controlled by two methods. Firstly, by calculating the signal:noise ratio; based on kinase polarisation without inhibitor and polarisation generated by complete reaction buffer in the absence of activated kinase. Secondly by determining IC50 values generated by known inhibitors of the AKT isoforms.

[2] = biological target: T2, AKT2 (Homo sapiens, UniProt P31751); assay: AKT Kinase Assay (IMAP fluorescent polarisation) vs AKT2; details: activated AKT2, FAM Crosstide substrate
T2 construct: purchased SignalChem
T2 sequence (P31751 whole entry): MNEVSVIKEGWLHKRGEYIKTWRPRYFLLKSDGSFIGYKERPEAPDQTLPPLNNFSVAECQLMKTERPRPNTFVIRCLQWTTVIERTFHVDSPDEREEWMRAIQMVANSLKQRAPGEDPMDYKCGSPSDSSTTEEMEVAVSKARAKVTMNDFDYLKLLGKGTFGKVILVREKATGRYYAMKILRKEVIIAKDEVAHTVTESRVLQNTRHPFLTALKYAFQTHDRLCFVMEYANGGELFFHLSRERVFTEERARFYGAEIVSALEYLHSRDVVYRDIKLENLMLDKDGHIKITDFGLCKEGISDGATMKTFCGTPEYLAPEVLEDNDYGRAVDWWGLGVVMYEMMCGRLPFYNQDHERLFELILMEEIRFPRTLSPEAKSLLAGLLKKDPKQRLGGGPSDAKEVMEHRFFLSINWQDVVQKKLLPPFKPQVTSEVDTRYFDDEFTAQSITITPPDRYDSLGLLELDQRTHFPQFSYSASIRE
Procedure: as §1, §2, §3, §4, §5, §6, §7, §8, §9, §10

[3] = biological target: T3, AKT3 (Homo sapiens, UniProt Q9Y243); assay: AKT Kinase Assay (IMAP fluorescent polarisation) vs AKT3; details: activated AKT3, FAM Crosstide substrate
T3 construct: purchased SignalChem
T3 sequence (Q9Y243 whole entry): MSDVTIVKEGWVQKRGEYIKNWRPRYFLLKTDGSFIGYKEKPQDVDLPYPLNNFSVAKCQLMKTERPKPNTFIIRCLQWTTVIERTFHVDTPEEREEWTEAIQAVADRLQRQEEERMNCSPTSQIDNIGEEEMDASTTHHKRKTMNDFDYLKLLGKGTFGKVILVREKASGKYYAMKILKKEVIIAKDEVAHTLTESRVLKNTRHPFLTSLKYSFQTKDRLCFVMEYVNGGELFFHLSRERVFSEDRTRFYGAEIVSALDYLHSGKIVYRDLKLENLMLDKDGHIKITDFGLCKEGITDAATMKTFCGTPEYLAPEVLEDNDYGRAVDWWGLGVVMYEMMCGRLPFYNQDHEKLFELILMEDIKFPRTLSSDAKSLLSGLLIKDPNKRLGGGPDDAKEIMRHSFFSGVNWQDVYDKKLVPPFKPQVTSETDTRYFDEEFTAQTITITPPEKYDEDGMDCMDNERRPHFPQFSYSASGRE
Procedure: as §1, §2, §3, §4, §5, §6, §7, §8, §9, §10

T1 sequence (P31749 whole entry): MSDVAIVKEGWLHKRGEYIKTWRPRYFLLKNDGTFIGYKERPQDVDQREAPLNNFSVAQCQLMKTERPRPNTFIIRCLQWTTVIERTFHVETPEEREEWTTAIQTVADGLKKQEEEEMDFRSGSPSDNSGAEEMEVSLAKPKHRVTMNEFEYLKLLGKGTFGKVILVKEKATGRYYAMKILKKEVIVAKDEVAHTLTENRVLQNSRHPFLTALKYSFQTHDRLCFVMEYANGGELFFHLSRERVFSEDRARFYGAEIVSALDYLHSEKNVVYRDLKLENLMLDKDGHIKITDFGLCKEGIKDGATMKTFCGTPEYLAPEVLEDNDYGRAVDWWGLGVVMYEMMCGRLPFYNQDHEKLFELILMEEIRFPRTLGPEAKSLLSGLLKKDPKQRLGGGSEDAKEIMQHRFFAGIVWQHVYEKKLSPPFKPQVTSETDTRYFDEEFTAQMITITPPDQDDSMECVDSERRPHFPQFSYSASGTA

Row | IC50 [1] [nM] | IC50 [2] [nM] | IC50 [3] [nM] | SMILES
1 | > 10000 | 1000 to 10000 | 1000 to 10000 | COCCn1ccc2c(=O)c(-c3ccc(C4(N)CCC4)cc3)c(-c3ccccc3)oc2c1=O [Example 31, 3-[4-(1-Amino-cyclobutyl)-phenyl]-7-(2-methoxy-ethyl)-2-phenyl-7H-pyrano[2,3-c]pyridine-4,8-dione]
2 | 1000 to 10000 | 1000 to 10000 | > 10000 | NC1(c2ccc(-c3c(-c4ccccc4)oc4ncccc4c3=O)cc2)CCC1 [Example 34, 3-[4-(1-Amino-cyclobutyl)-phenyl]-2-phenyl-pyrano[2,3-b]pyridin-4-one]
3 | 1000 to 10000 | 1000 to 10000 | > 10000 | NC1(c2ccc(-c3c(-c4ccccc4)oc4[nH]c(=O)ccc4c3=O)cc2)CCC1 [Example 36, 3-[4-(1-Amino-cyclobutyl)-phenyl]-2-phenyl-8H-pyrano[2,3-b]pyridine-4,7-dione hydrochloride]
4 | 1000 to 10000 | 1000 to 10000 | > 10000 | NC1(c2ccc(-c3c(-c4ccccc4)oc4nc(Cl)ccc4c3=O)cc2)CCC1 [Example 38, 3-[4-(1-Amino-cyclobutyl)-phenyl]-7-chloro-2-phenyl-pyrano[2,3-b]pyridin-4]
5 | > 10000 | 1000 to 10000 | > 10000 | Cn1ccc2c(=O)c(-c3ccc(C4(N)CCC4)cc3)c(-c3ccccc3)oc2c1=O [Example 41, 3-[4-(1-Amino-cyclobutyl)-phenyl]-7-methyl-2-phenyl-7H-pyrano[2,3-c]pyridine-4,8-dione hydrochloride]
6 | ≤ 1000 | ≤ 1000 | 1000 to 10000 | NC1(c2ccc(-c3c(-c4ccccc4)oc4c(Cl)nccc4c3=O)cc2)CCC1 [Example 42, 3-[4-(1-Amino-cyclobutyl)-phenyl]-8-chloro-2-phenyl-pyrano[2,3-c]pyridin-4-one hydrochloride]
7 | > 10000 | > 10000 | > 10000 | NC1(c2ccc(-c3c(-c4ccccc4)oc4c(=O)n(CCO)ccc4c3=O)cc2)CCC1 [Example 43, 3-[4-(1-Amino-cyclobutyl)-phenyl]-7-(2-hydroxy-ethyl)-2-phenyl-7H-pyrano[2,3-c]pyridine-4,8-dione hydrochloride]
8 | 1000 to 10000 | ≤ 1000 | 1000 to 10000 | NC1(c2ccc(-c3c(-c4ccccc4)oc4c(ccc5nc[nH]c54)c3=O)cc2)CCC1 [Example 45, 7-[4-(1-Amino-cyclobutyl)-phenyl]-8-phenyl-1H-chromeno[7,8-d]imidazol-6-one.TFA]

Further lines, the compound ahead of its results:

Row | SMILES | IC50 [1] [nM] | IC50 [2] [nM] | IC50 [3] [nM]
9 | NC1(c2ccc(-c3c(-c4ccccc4)oc4c(OC(F)F)nccc4c3=O)cc2)CCC1 [Example 32, 3-[4-(1-Amino-cyclobutyl)-phenyl]-8-difluoromethoxy-2-phenyl-pyrano[2,3-c]pyridin-4-one] | 1000 to 10000 | ≤ 1000 | 1000 to 10000
10 | NC1(c2ccc(-c3c(-c4ccccc4)oc4c(ccc5[nH]ncc54)c3=O)cc2)CCC1 [Example 33, 3-[4-(1-Amino-cyclobutyl)-phenyl]-2-phenyl-7H-pyrano[2,3-c]indazol-4-one] | ≤ 1000 | ≤ 1000 | ≤ 1000
11 | COc1ccc2c(=O)c(-c3ccc(C4(N)CCC4)cc3)c(-c3ccccc3)oc2n1 [Example 35, 3-[4-(1-Amino-cyclobutyl)-phenyl]-7-methoxy-2-phenyl-pyrano[2,3-b]pyridin-4-one hydrochloride] | 1000 to 10000 | 1000 to 10000 | 1000 to 10000
12 | NC1(c2ccc(-c3c(-c4ccccc4)oc4cc(F)ccc4c3=O)cc2)CCC1 [Example 37, 3-[4-(1-Amino-cyclobutyl)-phenyl]-7-fluoro-2-phenyl-chromen-4-one hydrochloride] | ≤ 1000 | 1000 to 10000 | 1000 to 10000
13 | COc1nccc2c(=O)c(-c3ccc(C4(N)CCC4)cc3)c(-c3ccccc3)oc12 [Example 39, 3-[4-(1-Amino-cyclobutyl)-phenyl]-8-methoxy-2-phenyl-pyrano[2,3-c]pyridin-4-one hydrochloride] | ≤ 1000 | ≤ 1000 | 1000 to 10000
